Test results reported in patent US20170157301A1, “LEOLIGIN DERIVATIVES AS SMOOTH MUSCLE CELL PROLIFERATION INHIBITORS” (TECHNISCHE UNIVERSITAET WIEN, priority 2014, published 2017).

Each compound was assayed on SMCs in relation to ECs (assay: activity ratio: efficiency towards SMCs / efficiency towards ECs). Conditions: activity ratio class; order in Table 1 follows the calculated values.
Assay type: cell-based
Experimental: For determination of vascular SMC proliferation, 0.5×10^4 viable rat aortic SMCs per well were seeded in SMC growth medium (DMEM/F12 medium with 20% serum, 30 μg/mL Gentamicin and 15 ng/mL Amphotericin) in 96-well plates. 24 h later, the medium was removed, the cells were washed once with SMC starvation medium (DMEM/F12 medium with 0.1% serum, 0.2% BSA, 30 μg/mL Gentamicin and 15 ng/mL Amphotericin) and incubated in starvation medium for further 24 h.
The quiescent cells were then pretreated for 30 min with the test compounds and induced to proliferate with 20 ng/mL platelet-derived growth factor (PDGF). Unstimulated cells were utilized for normalization and estimation of the basal level of proliferation. The final concentration of the solvent vehicle, dimethyl sulfoxide (DMSO), was the same (0.1%) in all wells. 48 h later, the SMC proliferation was quantified by resazurin dye conversion for 2 h as previously described (H. Joa et al., J. Nat. Prod. 74(6), 1513-6 (2011)).
For determination of endothelial cell proliferation, 0.5×10^4 HUVECtert immortalized human umbilical vein endothelial cells (H. B. Schiller et al., Mol. Biol. Cell. 20(3), 745-756 (2009)) were seeded in 96-well plates for 24 h in HUVEC Complete Medium (EBM™ growth medium supplemented with 10% fetal bovine serum, EBM™ SingleQuots (Lonza, Basel, Switzerland), 100 U/mL benzylpenicillin, 100 μg/mL streptomycin, and 1% amphotericin). Afterwards, the medium was exchanged with fresh HUVEC Complete Medium and cells were treated with the indicated compounds for 48 h. After the end of the incubation period, the medium was removed, the cells were washed once with 200 μL/well PBS, and treated with 150 μL HUVEC Complete Medium containing 10 μg/mL resazurin. 2 h later, the fluorescence was measured at a wavelength of 580 nm, with excitation wavelength 535 nm in a 96-well plate reader (Tecan GENios Pro; Tecan Group Ltd., Mannedorf, Switzerland).
In every case, the percentage of viable cells was subtracted from 1, in order to obtain a measure of efficiency of the test compounds towards each particular type of cells, and subsequently, the efficiency quotient towards SMCs and ECs was calculated and taken as the “activity ratio” and thus as a measure of selective efficiency of each test compound towards SMCs in relation to ECs. For example, the synthetic Leoligin with the bio ID 2418 prepared in Comparative Example 27 as compound 10-22 gave the following results:
Due to the usual fluctuations in determining surviving cells, which amount to approximately ±10%, and due to the relatively strong resulting fluctuations in calculating quotients—especially if the inhibitory effect of said novel compounds towards ECs is very poor—said threshold value of 1.50 for the activity ratio, as already mentioned above, was introduced.
In the following, a table listing every compound prepared in examples and comparative Examples for which an activity ratio (a.r.) of >1.0 was determined, is given.
In the case of `C/C=C(/C)C(=O)OC[C@H]1[C@@H](Cc2ccc(C(F)(F)F)cc2)CO[C@@H]1c1ccc(F)cc1` [Example 15, (Z)-((2S,3R,4R)-2-(4-fluorophenyl)-4-(4-(trifluoromethyl)benzyl)tetrahydro-furan-3-yl)methyl 2-methylbut-2-enoate], the a.r. code is reported as “AAA (a.r. ≧ 5.0)”. For `C/C=C(/C)C(=O)OC[C@H]1[C@@H](Cc2ccc(C(F)(F)F)cc2)CO[C@@H]1c1ccccc1` [Example 16, (Z)-((2S,3R,4R)-2-phenyl-4-(4-(trifluoromethyl)benzyl)tetrahydrofuran-3-yl)-methyl 2-methylbut-2-enoate], the a.r. code was “AAA (a.r. ≧ 5.0)”. With `C/C=C(/C)C(=O)OC[C@H]1[C@@H](Cc2ccc(F)cc2)CO[C@@H]1c1ccc(F)cc1` [Example 17, (Z)-((2S,3R,4R)-4-(4-fluorobenzyl)-2-(4-fluorophenyl)tetrahydrofuran-3-yl)-methyl 2-methylbut-2-enoate] the a.r. code was “AAA (a.r. ≧ 5.0)”. In the case of `C/C=C(/C)C(=O)OC[C@H]1[C@@H](Cc2ccc(C(C)(C)C)cc2)CO[C@@H]1c1ccc(F)cc1` [Example 18, (Z)-((2S,3R,4R)-4-(4-(tert-butyl)benzyl)-2-(4-fluorophenyl)tetrahydrofuran-3-yl)methyl 2-methylbut-2-enoate], the a.r. code is reported as “AAA (a.r. ≧ 5.0)”. In the case of `COc1ccc(C[C@H]2CO[C@H](c3cc(OC)c(OC)c(OC)c3)[C@H]2COC(=O)C=C(C)C)cc1OC` [Example 19, ((2S,3R,4R)-4-(3,4-dimethoxybenzyl)-2-(3,4,5-trimethoxyphenyl)tetrahydro-furan-3-yl)methyl 3-methylbut-2-enoate], the a.r. code is reported as “AAA (a.r. ≧ 5.0)”. For `C/C=C(/C)C(=O)OC[C@H]1[C@@H](Cc2ccc(C(C)(C)C)cc2)CO[C@@H]1c1cc(OC)c(OC)c(OC)c1` [Example 20, (Z)-((2S,3R,4R)-4-(4-(tert-butyl)benzyl)-2-(3,4,5-trimethoxyphenyl)tetrahydro-furan-3-yl)methyl 2-methylbut-2-enoate], the a.r. code was “AA (a.r. ≧ 2.0)”. `C/C=C(/C)C(=O)OC[C@H]1[C@@H](Cc2ccc(C(C)=O)cc2)CO[C@@H]1c1cc(OC)c(OC)c(OC)c1` [Example 21, (Z)-((2S,3R,4R)-4-(4-acetylbenzyl)-2-(3,4,5-trimethoxyphenyl)tetrahydrofuran-3-yl)methyl 2-methylbut-2-enoate] was tested, and the a.r. code was “AA (a.r. ≧ 2.0)”. In the case of `C/C=C(/C)C(=O)OC[C@H]1[C@@H](Cc2ccc(C(=O)OCC)cc2)CO[C@@H]1c1cc(OC)c(OC)c(OC)c1` [Example 22, ethyl 4-(((3R,4R,5S)-4-((((Z)-2-methylbut-2-enoyl)oxy)methyl)-5-(3,4,5-trimethoxyphenyl)tetrahydrofuran-3-yl)methyl)benzoate], the a.r. code is reported as “AA (a.r. ≧ 2.0)”. For `C/C=C/C(=O)OC[C@H]1[C@@H](Cc2ccc(OC)c(OC)c2)CO[C@@H]1c1ccc(OC)c(OC)c1` [Example 23, (E)-((2S,3R,4R)-4-(3,4-dimethoxybenzyl)-2-(3,4-dimethoxyphenyl)tetrahydro-furan-3-yl)methyl but-2-enoate], the a.r. code was “AA (a.r. ≧ 2.0)”. With `COc1ccc(C[C@H]2CO[C@H](c3ccc(OC)c(OC)c3)[C@H]2COC(=O)/C=C/c2ccccc2)cc1OC` [Example 24, ((2S,3R,4R)-4-(3,4-dimethoxybenzyl)-2-(3,4-dimethoxyphenyl)tetrahydrofuran-3-yl)methyl cinnamate] the a.r. code was “AA (a.r. ≧ 2.0)”. With `COc1ccc(C[C@H]2CO[C@H](c3ccc(OC)c(OC)c3)[C@H]2COC(=O)C=C(C)C)cc1OC` [Example 25, ((2S,3R,4R)-4-(3,4-dimethoxybenzyl)-2-(3,4-dimethoxyphenyl)tetrahydrofuran-3-yl)methyl 3-methylbut-2-enoate] the a.r. code was “AA (a.r. ≧ 2.0)”. In the case of `COc1ccc(C[C@H]2CO[C@H](c3ccccc3)[C@H]2COC(=O)C2CCCC2)cc1OC` [Example 26, ((2S,3R,4R)-4-(3,4-dimethoxybenzyl)-2-phenyltetrahydrofuran-3-yl)methyl cyclopentanecarboxylate], the a.r. code is reported as “A (a.r. ≧ 1.50)”. `COc1ccc(C[C@H]2CO[C@H](c3ccc(OC)c(OC)c3)[C@H]2COC(=O)CC23CC4CC(CC(C4)C2)C3)cc1OC` [Example 27, ((2S,3R,4R)-4-(3,4-dimethoxybenzyl)-2-(3,4-dimethoxyphenyl)tetrahydrofuran-3-yl) methyl 2-(adamantan-1-yl)acetate] was tested, and the a.r. code was “AA (a.r. ≧ 2.0)”. In the case of `COc1ccc(C[C@H]2CO[C@H](c3ccccc3)[C@H]2COC(=O)C2CCCCC2)cc1OC` [Example 28, ((2S,3R,4R)-4-(3,4-dimethoxybenzyl)-2-phenyltetrahydrofuran-3-yl)methyl cyclohexanecarboxylate], the a.r. code is reported as “A (a.r. ≧ 1.50)”. In the case of `COc1ccc(C[C@H]2CO[C@H](c3ccc(F)cc3)[C@H]2COC(=O)C2CCCC2)cc1OC` [Example 29, ((2S,3R,4R)-4-(3,4-dimethoxybenzyl)-2-(4-fluorophenyl)tetrahydrofuran-3-yl)-methyl cyclopentanecarboxylate], the a.r. code is reported as “A (a.r. ≧ 1.50)”. With `COc1ccc([C@H]2OC[C@H](Cc3ccc(C(C)(C)C)cc3)[C@@H]2COC(=O)C2CCCC2)cc1OC` [Example 30, ((2S,3R,4R)-4-(4-(tert-butyl)benzyl)-2-(3,4-dimethoxyphenyl)tetrahydrofuran-3-yl)methyl cyclopentanecarboxylate] the a.r. code was “AA (a.r. ≧ 2.0)”. For `CCC(CC)C(=O)OC[C@H]1[C@@H](Cc2ccc(OC)c(OC)c2)CO[C@@H]1c1ccc(F)cc1` [Example 31, ((2S,3R,4R)-4-(3,4-dimethoxybenzyl)-2-(4-fluorophenyl)tetrahydrofuran-3-yl)-methyl 2-ethylbutanoate], the a.r. code was “A (a.r. ≧ 1.50)”. With `COc1ccc(C[C@H]2CO[C@H](c3ccc(F)cc3)[C@H]2COC(=O)CC(C)C)cc1OC` [Example 32, ((2S,3R,4R)-4-(3,4-dimethoxybenzyl)-2-(4-fluorophenyl)tetrahydrofuran-3-yl)-methyl 3-methylbutanoate] the a.r. code was “AAA (a.r. ≧ 5.0)”. For `COc1ccc(C[C@H]2CO[C@H](c3ccc(F)cc3)[C@H]2COC(=O)C2CCC2)cc1OC` [Example 33, ((2S,3R,4R)-4-(3,4-dimethoxybenzyl)-2-(4-fluorophenyl)tetrahydrofuran-3-yl)methyl cyclobutanecarboxylate], the a.r. code was “AA (a.r. ≧ 2.0)”. `C/C=C(\C)C(=O)OC[C@H]1[C@@H](Cc2ccc(OC)c(OC)c2)CO[C@@H]1c1cc(OC)c(OC)c(OC)c1` [Example 34, (E)-((2S,3R,4R)-4-(3,4-dimethoxybenzyl)-2-(3,4,5-trimethoxyphenyl)tetra-hydrofuran-3-yl)methyl 2-methylbut-2-enoate] was tested, and the a.r. code was “AAA (a.r. ≧ 5.0)”. For `COc1ccc(C[C@H]2CO[C@H](c3cc(OC)c(OC)c(OC)c3)[C@H]2COC(=O)C2=CCCC2)cc1OC` [Example 35, ((2S,3R,4R)-4-(3,4-dimethoxybenzyl)-2-(3,4,5-trimethoxyphenyl)tetrahydro-furan-3-yl)methyl cyclopent-1-enecarboxylate], the a.r. code was “AA (a.r. ≧ 2.0)”. With `COc1ccc(C[C@H]2CO[C@H](c3cc(OC)c(OC)c(OC)c3)[C@H]2COC(=O)c2ccccc2)cc1OC` [Example 36, ((2S,3R,4R)-4-(3,4-dimethoxybenzyl)-2-(3,4,5-trimethoxyphenyl)tetrahydro-furan-3-yl)methyl benzoate] the a.r. code was “A (a.r. ≧ 1.50)”. For `CCCC(=O)OC[C@H]1[C@@H](Cc2ccc(OC)c(OC)c2)CO[C@@H]1c1cc(OC)c(OC)c(OC)c1` [Example 37, ((2S,3R,4R)-4-(3,4-dimethoxybenzyl)-2-(3,4,5-trimethoxyphenyl)tetrahydro-furan-3-yl)methyl butyrate], the a.r. code was “AAA (a.r. ≧ 5.0)”. In the case of `COc1ccc(C[C@H]2CO[C@H](c3cc(OC)c(OC)c(OC)c3)[C@H]2COC(=O)C(C)C)cc1OC` [Example 38, ((2S,3R,4R)-4-(3,4-dimethoxybenzyl)-2-(3,4,5-trimethoxyphenyl)tetrahydro-furan-3-yl)methyl isobutyrate], the a.r. code is reported as “AAA (a.r. ≧ 5.0)”. With `COc1ccc(C[C@H]2CO[C@H](c3cc(OC)c(OC)c(OC)c3)[C@H]2COC(=O)C2CCCCC2)cc1OC` [Example 39, ((2S,3R,4R)-4-(3,4-dimethoxybenzyl)-2-(3,4,5-trimethoxyphenyl)tetrahydro-furan-3-yl)methyl cyclohexanecarboxylate] the a.r. code was “A (a.r. ≧ 1.50)”.
